Usually MIC90 stands for the lowest concentration that inhibits either 90% of growth or 90% of the strains tested, depending on the study. Broadly, the logP is a log measure of how a compound divides between an organic and an aqueous phase. As a reminder, the Ki is the equilibrium dissociation constant of an inhibitor or competing ligand from its target. A lower Ki goes with a stronger hold on the target. By IC50 is commonly meant the concentration needed to halve the response being measured. A low value points to greater potency in that assay.

The source of these data is ChEMBL document CHEMBL1143085, “Synthesis and in vitro antimycobacterial activity of B-ring modified diaryl ether InhA inhibitors” (Bioorg Med Chem Lett, 2008).

≈ marks a conversion by molar mass, not a printed value. Bounds are passed on as bounds.

For data set [1], the system named is Mycobacterium tuberculosis. Kind of data set: Antimicrobial activity against Mycobacterium tuberculosis H37RV. It is filed as functional.
A short description of data set [2]: Partition coefficient, log P of the compound. The following applies: octanol/water. Format: physicochemical.
Data set [3] has as its target T1, Enoyl-[acyl-carrier-protein] reductase [NADH] (Mycobacterium tuberculosis, UniProt P9WGR1).
T1 sequence (P9WGR1 whole entry): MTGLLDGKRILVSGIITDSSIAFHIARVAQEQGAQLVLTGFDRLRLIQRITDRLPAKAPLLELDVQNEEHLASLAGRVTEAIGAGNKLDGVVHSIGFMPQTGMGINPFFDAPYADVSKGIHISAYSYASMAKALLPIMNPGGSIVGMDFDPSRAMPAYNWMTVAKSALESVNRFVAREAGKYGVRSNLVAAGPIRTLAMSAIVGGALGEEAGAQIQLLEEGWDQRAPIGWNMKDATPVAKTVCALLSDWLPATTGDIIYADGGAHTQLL
Description: Inhibition of Mycobacterium tuberculosis H37RV InhA

The target in data set [4] is T1, Enoyl-[acyl-carrier-protein] reductase [NADH]. Kind of data set: Inhibition of 100 nM Mycobacterium tuberculosis H37RV InhA.

In the case of `CCCCCCc1ccc(Oc2ncccn2)c(O)c1`, the MIC90 in data set [1] was 100 µg/mL (≈ 367 µM). Further, the lipophilicity (logP) in data set [2] (read-out: LogP) was determined as 4.46. This compound showed a Ki in data set [3] of 1 nM.
The matching figures for `CCCCCCc1ccc(Oc2cnccn2)c(O)c1`: 6.25 µg/mL (≈ 22.9 µM), 4.76 and 1 nM.
On to `CCCCCCc1ccc(Oc2nc(OC)cc(OC)n2)c(O)c1`, for which, in data set [1], the MIC90 was determined as 100 µg/mL (≈ 301 µM). This compound displayed an inhibitory constant (Ki) in data set [3] of 1 nM.
Take `CCCCCCc1ccc(Oc2ccncc2)c(O)c1`: the MIC90 in data set [1] was found to be 3.13 µg/mL (≈ 11.5 µM). In data set [2] (read-out: LogP), the lipophilicity (logP) was 4.93. This compound showed a Ki in data set [3] of 1 nM.
In the same order, the values of `CCCCCCc1ccc(Oc2ccc(NC(=O)c3ccno3)cc2)c(O)c1` are > 200 µg/mL, 5.15 and 1 nM.
In the case of `CCCCCCc1ccc(Oc2ccc(CN3CCN(C)CC3)cc2)c(O)c1`, the MIC90 in data set [1] was > 100 µg/mL. Besides, the inhibitory constant (Ki) in data set [3] came out at 1 nM.
In the same order, the values of `CCCCCCc1ccc(Oc2ccc(NC(=O)C(=O)O)cc2)c(O)c1` are > 200 µg/mL and 1 nM.
The matching figures for `CCCCCCc1ccc(Oc2ccc(NC(C)=O)cc2)c(O)c1`: 50 µg/mL (≈ 153 µM) and 1 nM.
In data set [1], `CCCCCCc1ccc(Oc2cccc(NC(=O)C(=O)O)c2)c(O)c1` registered an MIC90 of 130 µg/mL (≈ 364 µM). This compound gave an IC50 in data set [4] of 580 nM. This compound also returned a Ki in data set [3] of 1 nM.
`CCCCCCc1ccc(Oc2ccc(N)cc2)c(O)c1` showed an MIC90 in data set [1] of 12.5 µg/mL (≈ 43.8 µM). Also, in data set [2] (read-out: LogP), the log partition coefficient (logP) amounted to 4.93.
As to `CCCCCCc1ccc(Oc2ccccc2NC(C)=O)c(O)c1`, the MIC90 in data set [1] was > 200 µg/mL. The logP in data set [2] (read-out: LogP) stood at 5.28. Half-maximal inhibition in data set [4] (IC50) required 1550 nM. In data set [3], this compound came in with a Ki of 1 nM.
On to `CCCCCCc1ccc(Oc2ccccc2[N+](=O)[O-])c(O)c1`, for which the MIC90 in data set [1] is 12.5 µg/mL (≈ 39.6 µM). The logP in data set [2] came out at 5.5. The compound further came in with an inhibition constant (Ki) in data set [3] of 1 nM.
In turn, `CCCCCCc1ccc(Oc2cccc([N+](=O)[O-])c2)c(O)c1` gave an MIC90 in data set [1] of 12.5 µg/mL (≈ 39.6 µM).
In turn, `CCCCCCc1ccc(Oc2ccc([N+](=O)[O-])cc2)c(O)c1` came in with an MIC90 in data set [1] of 25 µg/mL (≈ 79.3 µM). In addition, the logP in data set [2] turned out to be 5.64. Besides, in data set [4], the half-inhibitory concentration (IC50) was 90 nM. Moreover, in data set [3], the Ki was determined as 1 nM.
Compound `CCCCCCc1ccc(Oc2ccccc2N)c(O)c1` came in with an MIC90 in data set [1] of 3.13 µg/mL (≈ 11 µM). Further, the logP in data set [2] (read-out: LogP) was determined as 5.27.
For the compound `CCCCCCc1ccc(Oc2ccccn2)c(O)c1`, in data set [2] (read-out: LogP), the logP amounted to 5.06. Further, the half-inhibitory concentration (IC50) in data set [4] was determined as 11500 nM. In data set [3], this compound yielded a Ki of 1 nM.
For the compound `CCCCCCc1ccc(Oc2ccccc2)c(O)c1`, the MIC90 in data set [1] was 2.1 µg/mL (≈ 7.77 µM). For the same compound, in data set [2] (read-out: LogP), the logP was 5.76. The affinity in data set [3] corresponds to a Ki of 1 nM.
`CCCCCCc1ccc(Oc2cccc(NC(C)=O)c2)c(O)c1` showed an MIC90 in data set [1] of 100 µg/mL (≈ 305 µM). In data set [4], this compound yielded an IC50 of 5600 nM. In data set [3], this compound registered an inhibitory constant (Ki) of 1 nM.
The compound `CCCCCCc1ccc(Oc2cccc(N)c2)c(O)c1` showed an MIC90 in data set [1] of 100 µg/mL (≈ 350 µM). In data set [3], affinity was put at a Ki of 1 nM.
Take `CCCCCCc1ccc(Oc2cccc(NC(=O)c3ccno3)c2)c(O)c1`: the MIC90 in data set [1] was > 200 µg/mL. Besides, the logP in data set [2] (read-out: LogP) was found to be 5.22. In addition, in data set [4], the midpoint of inhibition, the IC50, lay at 1200 nM. The same compound showed an inhibitory constant (Ki) in data set [3] of 1 nM.
As to `CCCCCCc1ccc(Oc2cccnc2)c(O)c1`, the MIC90 in data set [1] was 3.13 µg/mL (≈ 11.5 µM). Also, in data set [3], the inhibition constant (Ki) was found to be 1 nM.
Regarding `CCCCCCc1ccc(Oc2ccccc2NC(=O)C(=O)O)c(O)c1`, the MIC90 in data set [1] is 100 µg/mL (≈ 280 µM). The compound also displayed an IC50 in data set [4] of 2360 nM. Besides, affinity in data set [3] was put at a Ki of 1 nM.
On to `CCCCCCc1ccc(Oc2ccccc2CN2CCN(C)CC2)c(O)c1`, for which affinity in data set [3] was put at a Ki of 1 nM.
Consider `CCCCCCc1ccc(Oc2ccccc2NC(=O)c2ccno2)c(O)c1`, for which the MIC90 in data set [1] is > 200 µg/mL. Further, the logP in data set [2] (read-out: LogP) came to 5.76. In data set [3], this compound yielded a Ki of 1 nM.
`CCCCCCc1ccc(Oc2ncccn2)c(OC)c1`: the MIC90 in data set [1] came out at 75 µg/mL (≈ 262 µM). Further, the inhibition constant Ki in data set [3] came to 1 nM.
